Entries after “also recorded” stand apart in the source; their conditions may differ.
Tests used:
SNU-398 = experiment: Cellular uptake of FITC-labeled peptide; type: cell-based, human
Description: (§1) Cells were grown typically in 6 well plates (35 mm dish) to 50-70% confluence. Usually the transfect ion efficiency is somehow cell type specific. 2 mM peptide was diluted 4 times in PBS (2 ul+6 ul) (For FITC peptidedo not dilute the 2 mM stock). For each transfection reaction tube with 100 ul PBS+1 ul diluted peptide was set up. Chariot reagent was diluted 1:10 in ddH2O and for each transfection a 94 ul H2O tube+6 ul diluted Chariot was prepared (No master mix for more than 4 transfections). The 2 tubes were carefully mixed by pipetting up and down and incubated 30 min. at room temperature. Medium was aspirated from the dish (well) and cells were overlay with the mix. 400 ul serum free medium was added and cells were incubated further for 1 h 37 C (cell incubator). 500 ul complete medium (with 10% serum) was finally added. If cells are not very sensitive to serum starvation (cancer cell lines) 5% serum could be used.
(§2) Fluorescent and Confocal microscopy was performed on cells treated with FITC labeled peptides with or without of transfection reagent depending on the cell type. Cells were mounted on cover slips using mounting media with DAPI (Invitrogen) and in some cases cytoskeleton dye (Invitrogen).
(§3) In order to evaluate their cellular uptake and localization, the N terminus of these peptides was labeled with fluorescein isothiocyanate (FITC). Despite the net positive charge of these peptides, their uptake by the cells is cell-type specific. Some cell lines such as HL-60 (an AML cell line) allowed the peptide to enter the cells without any modification or carrier, and some cell lines were not penetrable at all. In order to achieve a similar level of peptide delivery in most cell types, a Chariot Transfection Reagent (Active Motif) was used as a peptide carrier, as directed from the manufacturer. All cell types used in the study described herein were subjected to individual evaluation of the percentage of the cells in which the peptide was delivered as well as the duration of time during which they sustained the labeled peptide in the cells. After Chariot treatment, confocal microscopy studies confirmed uptake of these peptides throughout the cell, including nuclei (as evidenced by DAPI overlay, FIG. 1B).
Next tested was the cellular uptake and localization of these peptides in various types of cells using FITC-labeled wild type or scrambled peptides. Despite the net positive charge of these peptides, their penetration into cells is cell type-specific. Some cell lines, such as HL-60 (an AML cell line), allowed peptide entry without any modification or facilitator, while others such as SNU-398 were not penetrable at all. […] The overall success rate of peptide uptake by the cells was above 95% with Pep-1, as evaluated by flow cytometry (FIG. 9A). […]

PTEN/AKT pathway = PTEN/AKT pathway expression in SNU-387 cells after treatment (Western blot); type: cell-based, human; settings: SNU-387, Western blot
Excerpt: The induction of Pten expression was not affected when wt peptide was administrated together with a Pten inhibitor. AKT, a molecule with levels of phosphorylation controlled by the expression of Pten was affected by the wt peptide addition accordingly. […] The effect of wt peptide on pAKT was abrogated by the Pten inhibitor. […] In contrast, the protein expression level of endogenous Pten was very high in the none-SALL4 expressing SNU387 cells.
To confirm the involvement of PTEN tumor suppressor in SALL4 peptide-induced reduction of number of viable HCC cells, PTEN expression was analyzed by western blot upon drug treatment. […] Whether the increase in PTEN expression upon SALL4 peptide treatment has an effect in PI3K signalling by dephosphorylating AKT was examined.
To confirm the involvement of the PTEN tumor suppressor in the SALL4 peptide-induced reduction of HCC cell viability, PTEN expression was analyzed by western blot upon drug treatment. […] If the increase in PTEN expression has an effect in PI3K signaling was next examined. PTEN functions as a phosphatase to dephosphorylate AKT.

AML3 = experiment: Cellular uptake of FITC-labeled peptide; type: cell-based
Description: as §1, §2, §3

CD34+ = experiment: Cellular uptake of FITC-labeled peptide; type: cell-based
Description: as §1, §2, §3

HDAC1 and HDAC2 = experiment: Anti-FITC pull-down from HL60 cell lysates, immunoblot for HDAC1 and HDAC2; type: binding, human
Description: FIG. 18: SALL4 peptide interacts with various components of the NuRD complex. Cell lysates from HL60 cells were mixed with wild type (wt) or mutant (mut) peptides end-labeled with FITC and immunoprecipitated with anti-FITC antibody (Santa Cruz). The complexes were pulled down with Dynabeads Antibody Coupling Kit (Invitrogen) according to the manufacturer's instructions. The samples were immunoblotted and probed for HDAC1 and HDAC2. […] The specificity was tested with mouse IgG instead of anti-FITC antibody.

HuH-7 and SNU-398 cells = experiment: In vivo tumorigenicity of shRNA-transduced HCC cells in NOD/SCID mice
Description: 4- to 8-week-old NOD/SIC mice were used. Animal work was done at the Childrens Hospital Boston (CHB) with approval from IACUC. 10×10^6 SNU-398 or 6×10^6 HuH-7 cells infected with viruses expressing scrambled shRNA or E5 shRNA specific for SALL4 (total 300 μL of cell suspension and matrigel in 1:1 ratio) were injected subcutaneously (s.c.) into NOD/SCID mice on the right flank. After injection, mice were examined and tumor volumes were measured at various time points. Tumor volume=π/6×larger diameter×(smaller diameter)^2. Tumor samples were processed for routine histology examination.
A decrease in tumorigenicity in SALL4-knockdown HCC cells was anticipated and an in vivo transplantation assay was carried out to confirm this hypothesis. HuH-7, another HCC cell line with considerably high endogenous SALL4 expression, and SNU-398 cells were transduced with lentivirus expressing either E5 shRNA or control scrambled shRNA and transplanted subcutaneously into right flank of NOD/SCID mice.
To examine if SALL4 has a role in maintaining tumorigenicity of HCC cells, in vivo xenotransplantation assays were carried out. HuH-7 and SNU-398 cells were transduced with lentviruses expressing either shSALL4 1 or Scr shRNA 1 and transplanted subcutaneously into the flanks of NOD/SCID mice.

Substance	peptide uptake (cells with peptide) (SNU-398; SNU-398, no carrier) [%]	peptide uptake (cells with peptide) (SNU-398; SNU-398, with Chariot) [%]	cells showing FITC-labeled peptide uptake (SNU-398; SNU-398, with Pep-1 carrier, flow cytometry)	PTEN protein expression (PTEN/AKT pathway)	phosphorylated AKT (pAKT) level (PTEN/AKT pathway)	PTEN protein expression (PTEN/AKT pathway; listed as SALL4 peptide)	peptide uptake (cells with peptide) (AML3; AML3, no carrier) [%]	peptide uptake (cells with peptide) (AML3; AML3, with Chariot) [%]	peptide uptake (cells with peptide) (CD34+; no carrier) [%]	peptide uptake (cells with peptide) (CD34+; with Chariot) [%]	binding to HDAC1 and HDAC2 (HDAC1 and HDAC2)	mice with tumor formation (HuH-7 and SNU-398 cells; HuH-7, subcutaneous, n=3)	ability of cells to propagate tumors (HuH-7 and SNU-398 cells; HuH-7 and SNU-398)	survival of mice (HuH-7 and SNU-398 cells; HuH-7 and SNU-398, Kaplan-Meier)
H-MSRRKQAKPQHI-OH [wt peptide, MSRRKQAKPQHI]	0	40	Over 90%	did not seem to change the expression of Pten significantly	little or no effect	slight increase in PTEN expression; also recorded: negligible effect on PTEN expression	~5	50	0	50	several folds higher activity than the mutant	–	–	–
CTATTTAGCCAAAGGCAAA (short hairpin RNA, chemistry and delivery not given here, further chemistry not given here) [E5 shRNA]	–	–	–	–	–	–	–	–	–	–	–	one out of the three	greatly reduced the ability of these cells to propagate tumors	significant survival advantage
